Measured values: PMC11277489, “Novel Piperazine Derivatives of Vindoline as Anticancer Agents” (International Journal of Molecular Sciences, 2024)

Experiments:
MDA-MB-231/ATCC = assay: NCI60 one-dose screen (10 μM), Breast Cancer; type: cell-based, human; conditions: Homo sapiens; 10 μM; MDA-MB-231/ATCC, Breast Cancer; read-out: Growth percent rate
BT-549 [1] = assay: NCI60 one-dose screen (10 μM), Breast Cancer; type: cell-based; conditions: Homo sapiens; 10 μM; BT-549, Breast Cancer; read-out: Growth percent rate
SW-620 = assay: NCI60 five-dose screen, Colon Cancer; type: cell-based; conditions: Homo sapiens; SW-620, Colon Cancer; five-dose screen; read-out: GI50
ACHN = assay: NCI60 five-dose screen, Renal Cancer; type: cell-based; conditions: Homo sapiens, Renal Cancer, five-dose screen, read-out: GI50
OVCAR-4 = assay: NCI60 five-dose screen, Ovarian Cancer; type: cell-based; conditions: Homo sapiens; OVCAR-4, Ovarian Cancer; five-dose screen; read-out: GI50
EKVX = assay: NCI60 one-dose screen (10 μM), Non-small Cell Lung Cancer; type: cell-based; conditions: Homo sapiens, 10 μM, Non-small Cell Lung Cancer, read-out: Growth percent rate
HS 578T = assay: NCI60 one-dose screen (10 μM), Breast Cancer; type: cell-based; conditions: Homo sapiens; 10 μM; HS 578T, Breast Cancer; read-out: Growth percent rate
SK-MEL-5 = assay: NCI60 five-dose screen, Melanoma; type: cell-based; conditions: Homo sapiens; SK-MEL-5, Melanoma; five-dose screen; read-out: GI50
T-47D [2] = assay: NCI60 five-dose screen, Breast Cancer; type: cell-based; conditions: Homo sapiens, T47D; T-47D, Breast Cancer; five-dose screen; read-out: GI50
HOP-92 = assay: NCI60 one-dose screen (10 μM), Non-small Cell Lung Cancer; type: cell-based; conditions: Homo sapiens; 10 μM; HOP-92, Non-small Cell Lung Cancer; read-out: Growth percent rate
SR = assay: NCI60 one-dose screen (10 μM), Leukemia; type: cell-based; conditions: Homo sapiens, 10 μM, Leukemia, read-out: Growth percent rate
PC-3 [3] = assay: NCI60 one-dose screen (10 μM), Prostate Cancer; type: cell-based; conditions: Homo sapiens; 10 μM; PC-3, Prostate Cancer; read-out: Growth percent rate
UO-31 = assay: NCI60 one-dose screen (10 μM), Renal Cancer; type: cell-based; conditions: Homo sapiens; 10 μM; UO-31, Renal Cancer; read-out: Growth percent rate
BT-549 [4] = assay: NCI60 five-dose screen, Breast Cancer; type: cell-based; conditions: Homo sapiens; BT-549, Breast Cancer; five-dose screen; read-out: GI50
PC-3 [5] = assay: NCI60 five-dose screen, Prostate Cancer; type: cell-based; conditions: Homo sapiens; PC-3, Prostate Cancer; five-dose screen; read-out: GI50
HOP-62 = assay: NCI60 five-dose screen, Non-small Cell Lung Cancer; type: cell-based; conditions: Homo sapiens; HOP-62, Non-small Cell Lung Cancer; five-dose screen; read-out: GI50
HCT-116 = assay: NCI60 one-dose screen (10 μM), Colon Cancer; type: cell-based; conditions: Homo sapiens; 10 μM; HCT-116, Colon Cancer; read-out: Growth percent rate
NCI-H226 [6] = assay: NCI60 five-dose screen, Non-small Cell Lung Cancer; type: cell-based; conditions: Homo sapiens; NCI-H226, Non-small Cell Lung Cancer; five-dose screen; read-out: GI50
NCI-H522 [7] = assay: NCI60 five-dose screen, Non-small Cell Lung Cancer; type: cell-based; conditions: Homo sapiens; NCI-H522, Non-small Cell Lung Cancer; five-dose screen; read-out: GI50
A549/ATCC = assay: NCI60 five-dose screen, Non-small Cell Lung Cancer; type: cell-based; conditions: Homo sapiens; A549/ATCC, Non-small Cell Lung Cancer; five-dose screen; read-out: GI50
UACC-257 = assay: NCI60 five-dose screen, Melanoma; type: cell-based; conditions: Homo sapiens; UACC-257, Melanoma; five-dose screen; read-out: GI50
OVCAR-3 [8] = assay: NCI60 five-dose screen, Ovarian Cancer; type: cell-based; conditions: Homo sapiens; OVCAR-3, Ovarian Cancer; five-dose screen; read-out: GI50
HCT-15 = assay: NCI60 five-dose screen, Colon Cancer; type: cell-based; conditions: Homo sapiens; HCT-15, Colon Cancer; five-dose screen; read-out: GI50
HL-60(TB) = assay: NCI60 five-dose screen, Leukemia; type: cell-based; conditions: Homo sapiens; HL-60(TB), Leukemia; five-dose screen; read-out: GI50
T-47D [9] = assay: NCI60 one-dose screen (10 μM), Breast Cancer; type: cell-based; conditions: Homo sapiens, T47D; 10 μM; T-47D, Breast Cancer; read-out: Growth percent rate
SF-268 = assay: NCI60 five-dose screen, CNS Cancer; type: cell-based; conditions: Homo sapiens; SF-268, CNS Cancer; five-dose screen; read-out: GI50
SK-OV-3 = assay: NCI60 one-dose screen (10 μM), Ovarian Cancer; type: cell-based; conditions: Homo sapiens; 10 μM; SK-OV-3, Ovarian Cancer; read-out: Growth percent rate
SN12C = assay: NCI60 one-dose screen (10 μM), Renal Cancer; type: cell-based; conditions: Homo sapiens, 10 μM, Renal Cancer, read-out: Growth percent rate
A498 = assay: NCI60 five-dose screen, Renal Cancer; type: cell-based; conditions: Homo sapiens; A498, Renal Cancer; five-dose screen; read-out: GI50
MDA-MB-468 = assay: NCI60 one-dose screen (10 μM), Breast Cancer; type: cell-based; conditions: Homo sapiens; 10 μM; MDA-MB-468, Breast Cancer; read-out: Growth percent rate
OVCAR-3 [10] = assay: NCI60 one-dose screen (10 μM), Ovarian Cancer; type: cell-based; conditions: Homo sapiens; 10 μM; OVCAR-3, Ovarian Cancer; read-out: Growth percent rate
NCI-H226 [11] = assay: NCI60 one-dose screen (10 μM), Non-small Cell Lung Cancer; type: cell-based; conditions: Homo sapiens; 10 μM; NCI-H226, Non-small Cell Lung Cancer; read-out: Growth percent rate
NCI-H460 = assay: NCI60 five-dose screen, Non-small Cell Lung Cancer; type: cell-based; conditions: Homo sapiens; NCI-H460, Non-small Cell Lung Cancer; five-dose screen; read-out: GI50
NCI-H23 = assay: NCI60 five-dose screen, Non-small Cell Lung Cancer; type: cell-based; conditions: Homo sapiens; NCI-H23, Non-small Cell Lung Cancer; five-dose screen; read-out: GI50
UACC-62 = assay: NCI60 one-dose screen (10 μM), Melanoma; type: cell-based; conditions: Homo sapiens; 10 μM; UACC-62, Melanoma; read-out: Growth percent rate
NCI/ADR-RES = assay: NCI60 five-dose screen, Ovarian Cancer; type: cell-based; conditions: Homo sapiens, Ovarian Cancer, five-dose screen, read-out: GI50
OVCAR-5 = assay: NCI60 one-dose screen (10 μM), Ovarian Cancer; type: cell-based; conditions: Homo sapiens; 10 μM; OVCAR-5, Ovarian Cancer; read-out: Growth percent rate
HCC-2998 = assay: NCI60 one-dose screen (10 μM), Colon Cancer; type: cell-based; conditions: Homo sapiens; 10 μM; HCC-2998, Colon Cancer; read-out: Growth percent rate
SNB-75 = assay: NCI60 five-dose screen, CNS Cancer; type: cell-based; conditions: Homo sapiens; SNB-75, CNS Cancer; five-dose screen; read-out: GI50
U251 = assay: NCI60 five-dose screen, CNS Cancer; type: cell-based; conditions: Homo sapiens, U-251; U251, CNS Cancer; five-dose screen; read-out: GI50
SK-MEL-2 = assay: NCI60 five-dose screen, Melanoma; type: cell-based; conditions: Homo sapiens; SK-MEL-2, Melanoma; five-dose screen; read-out: GI50
NCI-H522 [12] = assay: NCI60 one-dose screen (10 μM), Non-small Cell Lung Cancer; type: cell-based; conditions: Homo sapiens; 10 μM; NCI-H522, Non-small Cell Lung Cancer; read-out: Growth percent rate
LOX IMVI = assay: NCI60 five-dose screen, Melanoma; type: cell-based; conditions: Homo sapiens, Melanoma, five-dose screen, read-out: GI50
K-562 = assay: NCI60 five-dose screen, Leukemia; type: cell-based; conditions: Homo sapiens, K562; K-562, Leukemia; five-dose screen; read-out: GI50
SF-539 = assay: NCI60 five-dose screen, CNS Cancer; type: cell-based; conditions: Homo sapiens; SF-539, CNS Cancer; five-dose screen; read-out: GI50

CC[C@]12C=CCN3CC[C@@]4(c5ccc(OC)cc5N(C)[C@H]4[C@@](O)(C(=O)OC)[C@@H]1OC(=O)CCC(=O)N1CCN(Cc4ccc(C(F)(F)F)cc4)CC1)[C@@H]32 [Compound 29]
activity at 10 µM (MDA-MB-231/ATCC): 3.02% | activity at 10 µM (BT-549 [1]): -54.5% | GI50 (SW-620): 11.5 µM | GI50 (ACHN): 10.7 µM | GI50 (OVCAR-4): 5.62 µM | activity at 10 µM (EKVX): 25.4% | activity at 10 µM (HS 578T): 0.42% | GI50 (SK-MEL-5): 3.89 µM | GI50 (T-47D [2]): 5.25 µM | activity at 10 µM (HOP-92): -22.6% | activity at 10 µM (SR): -48.3% | activity at 10 µM (PC-3 [3]): 2.13% | activity at 10 µM (UO-31): 5.16% | GI50 (BT-549 [4]): 15.1 µM | GI50 (PC-3 [5]): 3.39 µM | GI50 (HOP-62): 14.1 µM | activity at 10 µM (HCT-116): 7.59% | GI50 (NCI-H226 [6]): 9.77 µM | GI50 (NCI-H522 [7]): 12.6 µM | GI50 (A549/ATCC): 8.32 µM | GI50 (UACC-257): 11.5 µM | GI50 (OVCAR-3 [8]): 6.46 µM | GI50 (HCT-15): 10.2 µM | GI50 (HL-60(TB)): 12.9 µM | activity at 10 µM (T-47D [9]): 24% | GI50 (SF-268): 5.75 µM | activity at 10 µM (SK-OV-3): 12.4% | activity at 10 µM (SN12C): 14.8% | GI50 (A498): 12.3 µM | activity at 10 µM (MDA-MB-468): -20.5% | activity at 10 µM (OVCAR-3 [10]): 0.33% | activity at 10 µM (NCI-H226 [11]): 16.7% | GI50 (NCI-H460): 10.5 µM | GI50 (NCI-H23): 12 µM | activity at 10 µM (UACC-62): -19.7% | GI50 (NCI/ADR-RES): 12.3 µM | activity at 10 µM (OVCAR-5): 15.2% | activity at 10 µM (HCC-2998): -52.6% | GI50 (SNB-75): 15.5 µM | GI50 (U251): 11.2 µM | GI50 (SK-MEL-2): 2.82 µM | activity at 10 µM (NCI-H522 [12]): 28.2% | GI50 (LOX IMVI): 13.8 µM | GI50 (K-562): 3.8 µM | GI50 (SF-539): 12.9 µM
